Assay results from US12037324B2, “Biarylmethyl heterocycles” (Université de Montréal, priority 2016, dated 2024).

How the values were obtained:
Format in all cases: cell-based
[1] = target: T1, AGTR1 (Homo sapiens, UniProt P30556); assay: DiscoveRx β-arrestin2 recruitment assay (enzyme complementation, Pathunter CHO-K1 AGTR1 β-arrestin cell line); conditions: DiscoveRx β-arrestin2 recruitment; for DiscoveRx β-arrestin2 Ymax (%): maximal response
T1 construct: host or cells: Pathunter CHO-K1 AGTR1 β-arrestin cell line (CHO-K1)
T1 sequence (P30556 1-359): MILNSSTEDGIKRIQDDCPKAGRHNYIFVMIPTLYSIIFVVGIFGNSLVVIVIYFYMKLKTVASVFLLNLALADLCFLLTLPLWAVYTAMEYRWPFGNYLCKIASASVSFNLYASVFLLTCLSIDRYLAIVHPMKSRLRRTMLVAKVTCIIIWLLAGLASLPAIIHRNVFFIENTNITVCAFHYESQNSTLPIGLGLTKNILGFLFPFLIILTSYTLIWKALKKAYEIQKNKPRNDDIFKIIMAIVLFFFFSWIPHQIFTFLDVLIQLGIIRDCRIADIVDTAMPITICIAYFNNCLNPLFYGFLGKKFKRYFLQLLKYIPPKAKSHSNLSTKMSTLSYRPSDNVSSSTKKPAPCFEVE
Experimental: In one aspect of the invention, signaling bias of compounds was assessed by comparing the relative activity of compounds to activate both the β-arrestin and Gq signaling pathways. In order to confirm signaling bias, compounds were studied in two different assay formats. DiscoveRx β-arrestin2 Recruitment and IP1 Assays β-arrestin2 recruitment to activated receptors can be assessed using an enzyme complementation method (Zhao, Jones et al. 2008). […] Cells (5000/well) were plated into 1536 well plates (Cellocoat plates, Greiner Bio One, Monroe, NC) 14-16 hours before each experiment in 20 μl DMEM/F12 medium (Thermo-Fisher Scientific, Carlsbad, CA) containing heat-inactivated 1% fetal bovine serum. Subsequently, the compounds of interest were added at varying concentrations to the wells in a volume of 200 nl and the cells incubated for 90 min at 37° C. The detection reagent (10 μl) was added to each well and the plates incubated at room temperature for 1 hour before measurement of chemiluminescence using an EnVision Multilabel Reader (Perkin-Elmer, Waltham, MA). The data are processed using Toolset for Runmaster QCMulti. Concentration-response curves are fitted and EC50s (agonist mode) and IC50s (antagonist mode) estimated using a 4-parameter logistic equation. Compound activities are reported as a relative percentage to the maximal effect of All in the assays.

[2] = target: T1, AGTR1; assay: DiscoveRx IP1 accumulation assay (HTRF), agonist mode, Pathunter CHO-K1 AGTR1 β-arrestin cell line; conditions: for EC50: read-out: IP-1 EC50
Experimental: In one aspect of the invention, signaling bias of compounds was assessed by comparing the relative activity of compounds to activate both the β-arrestin and Gq signaling pathways. In order to confirm signaling bias, compounds were studied in two different assay formats.
DiscoveRx β-arrestin2 Recruitment and IP1 Assays
Gq activation can be assessed by measuring the accumulation of inositol phosphates (e.g. IP3, IP1) that are liberated following activation of phospholipase C by Gq (Thomsen, Frazer et al. 2005). In the current invention we have utilized the DiscoveRx Pathunter CHO-K1 AGTR1 β-arrestin cell line to also measure IP1 accumulation in response to compounds. IP1 accumulation was measured in both agonist and antagonist modes. In agonist mode, cells are plated as above 14-16 hours before the experiment. The medium is then removed and compounds at varying concentrations added in a final volume of 20 μl. The cells are incubated at 37° C. for 90 min. IP1 accumulation detected using a commercial HTRF assay according to manufacturer's instructions (Cisbio, Bedford, MA). Specifically, 4 μl of D2-conjugate solution (diluted 1:20 in Cisbio HTRF assay buffer) is added to each well, followed by the addition of 4 μl of anti-IP1 cryptate diluted 1:20 in HTRF assay buffer and the plates incubated for 20 min at room temperature. 14 μl from each well is measured using an Envision multi-label reader and data processed using Toolset for Runmaster QCMulti. Concentration-response curves are fitted and EC50s (agonist mode) and IC50s (antagonist mode) estimated using a 4-parameter logistic equation. Compound activities are reported as a relative percentage to the maximal effect of All in the assays.

[3] = target: T2, hAT1R (Homo sapiens, UniProt P30556); assay: BRET β-arrestin2 biosensor assay, higher receptor expression (hAT1R 5 ng/well), HEK293 cells; conditions: for EC50: High AT1R Expression
T2 sequence (P30556 1-359): T1 sequence (P30556 1-359)

Compound	EC50 [1] [nM]	DiscoveRx β-arrestin2 Ymax (%) [1] [%]	IP-1 Ymax (%) [2] [%]	EC50 [2] [nM]	BRET β-Arrestin2 High AT1R Expression Ymax (%) [3] [%]	EC50 [3] [nM]
CCCCOC(=O)NS(=O)(=O)c1sc(-c2ccccc2)cc1-c1ccc(Cn2c(CC)nc3c(C)cc(C)nc32)cc1 [Example 49, Butyl (3-(4-((2-ethyl-5,7-dimethyl-3H-imidazo[4,5-b]pyridin-3-yl)methyl)phenyl)-5-phenylthiophen-2-yl)sulfonylcarbamate]	10.9	47.6	4.2	21	78.3	11.2
CCCCOC(=O)NS(=O)(=O)c1sc(-c2ccccc2)cc1-c1ccc(Cn2c(CC)nc3c(C)cc(C)nc32)cn1 [Example 50, Butyl (3-(5-((2-ethyl-5,7-dimethyl-3H-imidazo[4,5-b]pyridin-3-yl)methyl)pyridin-2-yl)-5-phenylthiophen-2-yl)sulfonylcarbamate]	10.9	21.8	6.7	132	64.9	16.8
CCc1nc2c(C)cc(C)nc2n1Cc1ccc(-c2cc(N3CCC(F)(F)C3)ccc2-c2nn[nH]n2)cc1 [Example 51]	21.2	21.1	3.7	92.1	43.8	99
CCc1nc2c(C)cc(C)nc2n1Cc1ccc(-c2cc(-c3cccnc3)ccc2-c2nn[nH]n2)cc1 [Example 52]	5.5	5.0		> 1000	23.4	30.7
CCc1nc2c(C)cc(C)nc2n1Cc1ccc(-c2cc(-c3ccc(F)cc3F)ccc2-c2nn[nH]n2)cc1 [Example 54]	5.9	39.5	7.0	10.5	89.7	5.7
CCc1nc2c(C)cc(C)nc2n1Cc1ccc(-c2cc(-c3cncn3C)ccc2-c2nn[nH]n2)cc1 [Example 58]	86.2	12.7	3.1	427	46.2	190
CCc1nc2c(C)cc(C)nc2n1Cc1ccc(-c2cc(-c3ccccc3)ccc2OCC(=O)O)cc1 [Example 69, 2-((4″-((2-ethyl-5,7-dimethyl-3H-imidazo[4,5-b]pyridin-3-yl)methyl)-[1,1′:3′,1″-terphenyl]-4′-yl)oxy)acetic acid]	376	8.5		> 100000	10.3	1500
CCc1nc2c(C)cc(C)nc2n1Cc1ccc(-c2cc(C3=CCCCC3)ccc2-c2nn[nH]n2)cc1 [Example 70, 3-((6′-(2H-Tetrazol-5-yl)-2″,3″,4″,5″-tetrahydro-[1,1′:3′,1″-terphenyl]-4-yl)methyl)-2-ethyl-5,7-dimethyl-3H-imidazo[4,5-b]pyridine]	13.1	58.7		> 50000	94.7	7.1
CCc1nc2c(C)cc(C)nc2n1Cc1ccc(-c2cc(C3CCCCC3)ccc2-c2nn[nH]n2)cc1 [Example 71, 3-((5′-Cyclohexyl-2′-(2H-tetrazol-5-yl)-[1,1′-biphenyl]-4-yl)methyl)-2-ethyl-5,7-dimethyl-3H-imidazo[4,5-b]pyridine]	17.4	46.8	11.8	48600	86.6	23.3
CCc1nc2c(C)cc(C)nc2n1Cc1ccc(-c2cc(C3=NCCC3)ccc2-c2nn[nH]n2)cc1 [Example 77, 3-((5′-(3,4-dihydro-2H-pyrrol-5-yl)-2′-(2H-tetrazol-5-yl)-[1,1′-biphenyl]-4-yl)methyl)-2-ethyl-5,7-dimethyl-3H-imidazo[4,5-b]pyridine]	60.2	21.1	7.1	204	77.1	90.6
CCc1nc2c(C)cc(C)nc2n1Cc1ccc(-c2cc(N3CCC(F)(F)CC3)ccc2-c2nn[nH]n2)cc1 [Example 82, 3-((5′-(4,4-difluoropiperidin-1-yl)-2′-(2H-tetrazol-5-yl)-[1,1′-biphenyl]-4-yl)methyl)-2-ethyl-5,7-dimethyl-3H-imidazo[4,5-b]pyridine]	95.7	16.8		> 100000	49.6	142
CCc1nc2c(C)cc(C)nc2n1Cc1ccc(-c2cc(N3CC(C)(C)c4ccccc43)ccc2-c2nn[nH]n2)cc1 [Example 84]	91.6	35.3	6.6	126	88.9	36.4
CCc1nc2c(C)cc(C)nc2n1Cc1ccc(-c2cc(-n3ccc4cc(F)ccc43)ccc2-c2nn[nH]n2)cc1 [Example 85]	18.2	16.9		> 100000	88.3	10.5
CCc1nc2c(C)cc(C)nc2n1Cc1ccc(-c2cc(N3CCC(OC)CC3)ccc2-c2nn[nH]n2)cc1 [Example 87]	42.5	16.7	7.2	42	29.1	451
CCc1nc2c(C)cc(C)nc2n1Cc1ccc(-c2cc(-n3cccc3)ccc2-c2nn[nH]n2)cc1 [Example 90]	55.4	23.2	6.0	39.8	77.7	27.7
CCc1nc2c(C)cc(C)nc2n1Cc1ccc(-c2cc(Nc3ccccc3)ccc2-c2nn[nH]n2)cc1 [Example 93]	7.9	32.6	5.4	21.2	82.8	7.5
CCc1nc2c(C)cc(C)nc2n1Cc1ccc(-c2cc(N(C)c3ccccc3)ccc2-c2nn[nH]n2)cc1 [Example 94]	13.1	35.9	9.0	32.7	76.8	20.8
CCc1nc2c(C)cc(C)nc2n1Cc1ccc(-c2cc(N3CCc4ccccc43)ccc2-c2nn[nH]n2)cc1 [Example 96]	12.6	33.0	5.3	28.7	77.6	12.9
CCc1nc2c(C)cc(C)nc2n1Cc1ccc(-c2cc(N3CCC(C)CC3)ccc2-c2nn[nH]n2)cc1 [Example 97, 2-ethyl-5,7-dimethyl-3-((5′-(4-methylpiperidin-1-yl)-2′-(2H-tetrazol-5-yl)-[1,1′-biphenyl]-4-yl)methyl)-3H-imidazo[4,5-b]pyridine]	15.1	34.3	7.3	47.3	79.7	31.1
